# Assay results published in patent US20210222177A1, “THERAPEUTIC AGENT FOR CARTILAGE-RELATED DISEASE” (ONO PHARMACEUTICAL CO., LTD., priority 2018, published 2021).
# Test system: Normal human knee joint chondrocytes
# Test: Evaluation of chondrocyte differentiation promoting action (chondrocyte pellet culture)
# Type: cell-based
# Conditions: ASO final concentration 1000 nmol/L with calcium chloride 9 mmol/L, pellet-cultured for 10 days, versus Vehicle group
# Method: Normal human knee joint chondrocytes (Lonza Walkersville, Inc.) were thawed and cultured (culture conditions; 5% CO2, 37° C., 95% Air, the same conditions applies hereafter.) in a subculture medium (DMEM/F-12+glutaMAX, included in set of chondrocyte addition factors (Lonza Walkersville, Inc.)). Diluted subculture was performed after subconfluent, and two days after subculture, the culture was treated with antisense oligonucleotides against SIK2 and SIK3 (hereinafter SIK2 ASO; ACAACAACTGCACTTT (SEQ ID NO: 1) and SIK3 ASO; GGTTAGTGCCACGTTG (SEQ ID NO: 6)) in the presence of calcium chloride (9 mmol/L) (final concentration 1000 nmol/L). […] Chondrocyte pellets were imaged using Opera Phenix High Content Screening System (PerkinElmer), and pellet size (area of the pellet image) was calculated using an attached analysis software Harmony. The chondrocyte pellets after imaging were frozen in liquid nitrogen, crushed using AUTOMILL (Tokken, inc.), and then total RNA was extracted using RNeasy Plus Mini Kit (QIAGEN N.V.). cDNA was synthesized from a total RNA solution using High Capacity cDNA Reverse Transcription Kit, and expression level of each gene was measured by real-time polymerase chain reaction (PCR) method using TaqMan Fast Universal PCR Master Mix (2×) (Life Technologies Corporation) and Primer-Probe (COL2A1 assay ID: Hs01060345_m1, COL1A2 assay ID: Hs01028970_m1) of each gene. […]
substance,measurement,setting,value
"SIK2 ASO: SIK2 antisense oligonucleotide, ACAACAACTGCACTTT (SEQ ID NO: 1) (listed as DNA, chemistry not given here)",cartilage differentiation markers COL2A1/COL1A2,"real-time PCR, FIG. 2",increased
same,chondrocyte pellet size (area of the pellet image),"t-test, FIG. 1",significantly increased
